Measurements from US20080131534A1, “USE OF A PLANT EXTRACT OR PLANT JUICE” (Melbrosin International Produktions- und Vertriebs GesmbH & …, priority 2006, published 2008).

Molecular target: T1, PPAR-gamma (Homo sapiens, UniProt P37231)
T1 construct: purchased Invitrogen
T1 sequence (P37231 238-503 limits assumed): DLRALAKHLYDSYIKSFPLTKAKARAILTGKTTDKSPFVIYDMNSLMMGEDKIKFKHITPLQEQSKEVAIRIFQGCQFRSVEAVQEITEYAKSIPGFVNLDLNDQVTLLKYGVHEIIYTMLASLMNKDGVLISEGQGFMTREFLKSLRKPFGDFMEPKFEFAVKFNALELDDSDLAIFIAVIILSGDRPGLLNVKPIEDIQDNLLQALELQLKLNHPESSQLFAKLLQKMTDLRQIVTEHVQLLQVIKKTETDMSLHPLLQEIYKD
Assay: Polar Screen PPAR Competitive Assay (fluorescence polarization ligand binding)
Conditions: not given

| Compound | EC50 |
| --- | --- |
| O=C(O)c1cc(O)c(O)c(O)c1 [Gallic acid] | 128 µM |
| O=C(/C=C/c1ccccc1)c1ccccc1O [2′-Hydroxychalcone] | 20 µM |
| O=c1c(-c2ccc(O)cc2)coc2cc(O)cc(O)c12 [Genistein] | 22 µM |
| C=CCc1ccc2c(c1)OCO2 [Safrol] | 2250 µM |

Same assay, conditions: EC50, Table 1, tested substances

| Compound | EC50 |
| --- | --- |
| Cc1ccc(C(C)C)c(O)c1 [Thymol] | 695 µM |

Same assay, conditions: EC50, Table 3, active substances in Oregano

| Compound | EC50 |
| --- | --- |
| Cc1ccc(C(C)C)c(O)c1 [Thymol] | 695 µM |

Same assay, conditions: Table 1, result in words

| Compound | EC50 |
| --- | --- |
| O=c1c(O[C@@H]2O[C@H](CO)[C@H](O)[C@H](O)[C@H]2O)c(-c2ccc(O)c(O)c2)oc2cc(O)cc(O)c12 [Hyperoside] | does not bind |
| COc1cc(/C=C/C(=O)CC(=O)/C=C/c2ccc(O)c(OC)c2)ccc1O [Curcumin] | does not bind |
| COc1cc(/C=C/C(=O)O)ccc1O [Ferrulic acid] | does not bind |
| O=C(/C=C/c1ccccc1)c1ccccc1O [2′-OH-Chalcone] | does not bind |
| c1cc2c(cc1[C@H]1OC[C@H]3[C@@H]1CO[C@@H]3c1ccc3c(c1)OCO3)OCO2 [Sesamin] | does not bind |

Same assay, conditions: Table 1, result in words; *tested to a concentration of 0.1 M

| Compound | EC50 |
| --- | --- |
| O=c1c(-c2ccc(O)cc2)coc2cc(O[C@@H]3O[C@H](CO)[C@@H](O)[C@H](O)[C@H]3O)ccc12 [Daidzin] | does not bind* |
| O=c1c(-c2ccc(O)cc2)coc2cc(O[C@@H]3O[C@H](CO)[C@@H](O)[C@H](O)[C@H]3O)cc(O)c12 [Genistin] | does not bind* |
| Cc1ccc(C(C)C)cc1 [p-Cymene] | does not bind* |
| O=C(O)/C=C/c1ccccc1O [o-Coumaric acid] | does not bind* |
| C=C1CC/C=C(\C)CC[C@@H]2[C@@H]1CC2(C)C [β-Caryophyllene] | does not bind* |
| C=CCSCC=C [Diallylsulfide] | does not bind* |
| COc1cc(O)c2c(=O)c(-c3ccc(O)cc3)coc2c1 [Prunetin] | does not bind* |
| COc1ccc(-c2cc(=O)c3c(O)cc(O[C@@H]4O[C@H](CO[C@@H]5O[C@@H](C)[C@H](O)[C@@H](O)[C@H]5O)[C@@H](O)[C@H](O)[C@H]4O)cc3o2)cc1O [Diosmin] | does not bind* |
| C/C1=C\CC/C(C)=C/CC(C)(C)/C=C/C1 [α-Humulene] | does not bind* |
| C[C@]12CC[C@@H]3c4ccc(O)cc4CC[C@H]3[C@@H]1CCC2=O [Estron] | does not bind* |
| COc1ccc(-c2coc3cc(O[C@@H]4O[C@H](CO)[C@@H](O)[C@H](O)[C@H]4O)ccc3c2=O)cc1 [Ononin] | does not bind* |
| O=c1c(-c2ccc(O)cc2)coc2c([C@@H]3O[C@H](CO)[C@@H](O)[C@H](O)[C@H]3O)c(O)ccc12 [Puerarin] | does not bind* |
| O=C(O)/C=C/c1ccc(O)c(O)c1 [Caffeic acid] | does not bind* |
| O=C(O)c1ccc(O)c(O)c1 [Protocatechuic acid] | does not bind* |
| COc1ccc(-c2coc3cc(O[C@@H]4O[C@H](CO)[C@@H](O)[C@H](O)[C@H]4O)cc(O)c3c2=O)cc1 [Sissotrin] | does not bind* |
| CCCCCC(C)=O [2-Heptanon] | does not bind* |
| C=CC(C)(O)CCC=C(C)C (stereo not shown) [Linalool] | does not bind* |
| C=CC(C)=CCC=C(C)C [Ocimene] | does not bind* |
| COc1ccc(-c2coc3cc(O)ccc3c2=O)cc1 [Formononetin] | does not bind* |
| Oc1cc(O)c2c(c1)O[C@H](c1ccc(O)c(O)c1)[C@H](O)[C@H]2c1c(O)cc(O)c2c1O[C@H](c1ccc(O)c(O)c1)[C@H](O)C2 [Procyanidin B2] | does not bind* |

Same assay, conditions: Table 1, tested substances; read-out: EC50

| Compound | EC50 |
| --- | --- |
| O=C1OC[C@H](Cc2cccc(O)c2)[C@H]1Cc1cccc(O)c1 [Enterolacton] | > 500 µM |
| C=CCc1ccc(O)c(OC)c1 [Eugenol] | 420 µM |
| O=C(/C=C/c1ccccc1O)c1ccccc1 [2-Hydroxychalcone] | 2.9 µM |
| O=c1cc(-c2ccc(O)cc2)oc2cc(O)cc(O)c12 [Apigenin] | 104 µM |
| O=c1c(-c2ccc(O)cc2)coc2cc(O)ccc12 [Daidzein] | 470 µM |
| COc1cc(CNC(=O)CCCC/C=C/C(C)C)ccc1O [Capsaicin] | > 500 µM |
| O=c1c(OC2OC(CO)C(O)C(O)C2O)c(-c2ccc(O)c(O)c2)oc2cc(O)cc(O)c12 (stereo not shown) [Isoquercetrin] | 52 µM |
| O=C(CCc1ccc(O)cc1)c1c(O)cc(O)cc1O [Phloretin] | 20 µM |
| OCc1c[nH]c2ccccc12 [Indol-3-Carbinol] | > 500 µM |
| O=CC=Cc1ccccc1 [Cinnamaldehyde] | 10.4 µM |
| CCOC(=O)C=Cc1ccccc1 [Ethylcinnamate] | 2700 µM |
| O=c1c(O)c(-c2ccc(O)cc2)oc2cc(O)cc(O)c12 [Kaempferol] | 467 µM |
| O=C(O)/C=C/c1ccc(O)cc1 [p-Coumaric acid] | > 500 µM |
| Oc1ccc([C@H]2COc3cc(O)ccc3C2)cc1 [Equol] | 60 µM |
| O=c1c(O)c(-c2ccc(O)c(O)c2)oc2cc(O)cc(O)c12 [Quercetin] | 2.6 µM |
| O=C(CCc1ccc(O)cc1)c1c(O)cc(O)cc1O[C@@H]1O[C@H](CO)[C@@H](O)[C@H](O)[C@H]1O [Phloridzin] | > 500 µM |
| O=c1cc(-c2ccc(O)c(O)c2)oc2cc(O)cc(O)c12 [Luteolin] | 4 µM |
| CC(C(=O)c1ccc(O)cc1O)c1ccc(O)cc1 (stereo not shown) [ODMA, O-Desmethyl-angolenain] | 67 µM |
| O=c1c(O)c(-c2ccccc2)oc2ccccc12 [3-Hydroxyflavon] | > 500 µM |
| Oc1cc(O)c2c(c1)O[C@H](c1ccc(O)c(O)c1)[C@H](O)C2 [Epicatechin] | > 500 µM |
| O=C(Nc1ccccc1)c1cc([N+](=O)[O-])ccc1Cl [CW9662, 2-Chloro-5-nitrobenanilide, reference compound] | 0.0107 µM |
| O=c1c(O)c(-c2ccccc2)oc2cc(O)cc(O)c12 [Galangin] | 143 µM |
| O=C(/C=C/c1ccc(O)c(O)c1)O[C@H](Cc1ccc(O)c(O)c1)C(=O)O [Rosmarinic acid] | 7.8 µM |
| O=c1oc2cc(O)ccc2c2oc3cc(O)ccc3c12 [Coumestrol] | 8.5 µM |
| OC[C@H](Cc1cccc(O)c1)[C@H](CO)Cc1cccc(O)c1 [Enterodiol] | > 500 µM |
| O=c1c(O)c(-c2cc(O)c(O)c(O)c2)oc2cc(O)cc(O)c12 [Myricetin] | 53 µM |
| O=C1C[C@@H](c2ccc(O)c(O)c2)Oc2cc(O)cc(O)c21 [Eriodictyol] | 66 µM |
| COc1ccc([C@@H]2CC(=O)c3c(O)cc(O[C@@H]4O[C@H](CO[C@@H]5O[C@@H](C)[C@H](O)[C@@H](O)[C@H]5O)[C@@H](O)[C@H](O)[C@H]4O)cc3O2)cc1O [Hesperidin] | > 500 µM |
| COc1ccc(-c2coc3cc(O)cc(O)c3c2=O)cc1 [Biochanin A] | 20 µM |

Same assay, conditions: Table 3, active substances in Oregano; read-out: EC50

| Compound | EC50 |
| --- | --- |
| O=C(/C=C/c1ccc(O)c2c1[C@H](C(=O)O[C@H](Cc1ccc(O)c(O)c1)C(=O)O)[C@@H](c1ccc(O)c(O)c1)O2)O[C@H](Cc1ccc(O)c(O)c1)C(=O)O [Salvianolic acid B] | 292 µM |
| O=c1cc(-c2ccc(O)cc2)oc2cc(O)cc(O)c12 [Apigenin] | 104 µM |
| C[C@H]1[C@H](C)CC[C@]2(C(=O)O)CC[C@]3(C)C(=CC[C@@H]4[C@@]5(C)CC[C@H](O)C(C)(C)[C@@H]5CC[C@]43C)[C@H]12 [Ursolsäure] | > 500 µM |
| O=c1c(OC2OC(CO)C(O)C(O)C2O)c(-c2ccc(O)c(O)c2)oc2cc(O)cc(O)c12 (stereo not shown) [Isoquercetrin] | 53 µM |
| O=c1c(O)c(-c2ccc(O)cc2)oc2cc(O)cc(O)c12 [Kaempferol] | 467 µM |
| O=C(O)/C=C/c1ccc(O)cc1 [p-Coumaric acid] | > 500 µM |
| O=c1c(O)c(-c2ccc(O)c(O)c2)oc2cc(O)cc(O)c12 [Quercetin] | 2.6 µM |
| COc1cc(C(=O)O)ccc1O [Vanillic acid] | > 500 µM |
| O=c1cc(-c2ccc(O)c(O)c2)oc2cc(O)cc(O)c12 [Luteolin] | 4 µM |
| O=C1C[C@@H](c2ccc(O)cc2)Oc2cc(O)cc(O)c21 [Narigenin] | 81 µM |
| O=C(/C=C/c1ccc(O)c(O)c1)O[C@H](Cc1ccc(O)c(O)c1)C(=O)O [Rosmarinic acid] | 7.8 µM |
| O=c1cc(-c2ccc(O)cc2)oc2cc(OC3O[C@H](CO)[C@@H](O)[C@H](O)[C@H]3O)cc(O)c12 (stereo partly shown) [Apigenin-7Glycoside] | > 500 µM |
| O=C1c2c(O)cc(O)cc2O[C@H](c2ccc(O)c(O)c2)[C@H]1O [Taxifolin] | 275 µM |
| O=C1C[C@@H](c2ccc(O)c(O)c2)Oc2cc(O)cc(O)c21 [Eriodictyol] | 66 µM |
| O=c1cc(-c2ccc(O)cc2)oc2c([C@@H]3O[C@H](CO)[C@@H](O)[C@H](O)[C@H]3O)c(O)cc(O)c12 [Vitexin] | 156 µM |
| COc1ccc(-c2coc3cc(O)cc(O)c3c2=O)cc1 [Biochanin A] | 20 µM |
